# From patent US12655116B2, “Substituted isophthalic acid diamides” (Bayer Aktiengesellschaft, priority 2020, dated 2026)
# Experiments:
# ALOMY [1] = test: Post-emergence herbicidal action against ALOMY; assay type: in vivo, Alopecurus myosuroides; details: Alopecurus myosuroides, 504 h, visual assessment about 3 weeks after treatment vs untreated controls
# Method in brief: (§1)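 Sandy loam, greenhouse; treatment 2–3 weeks after sowing, one-leaf stage. Aqueous suspension or emulsion from WP/EC sprayed on foliage (600–800 l/ha, 0.2% wetting agent). Readout: visual % action, ~3 weeks.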
# ECHCG [2] = test: Post-emergence herbicidal action against ECHCG; assay type: in vivo, Echinochloa crus-galli
# Method in brief: as §1
# AMARE [3] = test: Pre-emergence herbicidal action against AMARE; assay type: in vivo, Amaranthus retroflexus
# Method in brief: (§2)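 Seeds sown in sandy loam, soil-covered; compound sprayed on soil surface pre-emergence. Application: WP/EC, 600–800 l/ha, 0.2% wetting agent. Readout: visual % damage at 3 weeks.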
# LOLRI = test: Pre-emergence herbicidal action against LOLRI; assay type: in vivo, Lolium rigidum; details: 80 g/ha
# Method in brief: as §2
# MATIN [4] = test: Pre-emergence herbicidal action against MATIN; assay type: in vivo, Matricaria inodora
# Method in brief: as §2
# PHBPU [5] = test: Post-emergence herbicidal action against PHBPU; assay type: in vivo, Pharbitis purpurea
# Method in brief: as §1
# ALOMY [6] = test: Pre-emergence herbicidal action against ALOMY; assay type: in vivo, Alopecurus myosuroides; details: pre-emergence
# Method in brief: as §2
# DIGSA [7] = test: Pre-emergence herbicidal action against DIGSA; assay type: in vivo, Digitaria sanguinalis
# Method in brief: as §2
# AVEFA [8] = test: Post-emergence herbicidal action against AVEFA; assay type: in vivo, Avena fatua; details: 20 g/ha, visual assessment about 3 weeks after treatment, 100% = plants have died, 0% = like control plants
# Method in brief: as §1
# ECHCG [9] = test: Pre-emergence herbicidal action against ECHCG; assay type: in vivo, Echinochloa crus-galli; details: 80 g/ha
# Method in brief: as §2
# MATIN [10] = test: Post-emergence herbicidal action against MATIN; assay type: in vivo, Matricaria inodora
# Method in brief: as §1
# AVEFA [11] = test: Pre-emergence herbicidal action against AVEFA; assay type: in vivo, Avena fatua; details: pre-emergence
# Method in brief: as §2
# ABUTH [12] = test: Pre-emergence herbicidal action against ABUTH; assay type: in vivo, Abutilon theophrasti
# Method in brief: as §2
# AMARE [13] = test: Post-emergence herbicidal action against AMARE; assay type: in vivo, Amaranthus retroflexus; details: 20 g/ha, visual assessment about 3 weeks after treatment, 100% = plants have died, 0% = like control plants
# Method in brief: as §1
# VIOTR [14] = test: Pre-emergence herbicidal action against VIOTR; assay type: in vivo, Viola tricolor
# Method in brief: as §2
# SETVI [15] = test: Post-emergence herbicidal action against SETVI; assay type: in vivo, Setaria viridis; details: Setaria viridis, 504 h
# Method in brief: as §1
# VERPE [16] = test: Pre-emergence herbicidal action against VERPE; assay type: in vivo, Veronica persica
# Method in brief: as §2
# SETVI [17] = test: Pre-emergence herbicidal action against SETVI; assay type: in vivo, Setaria viridis
# Method in brief: as §2
# PHBPU [18] = test: Pre-emergence herbicidal action against PHBPU; assay type: in vivo, Pharbitis purpurea
# Method in brief: as §2
# ABUTH [19] = test: Post-emergence herbicidal action against ABUTH; assay type: in vivo, Abutilon theophrasti; details: visual assessment about 3 weeks after treatment vs untreated controls
# Method in brief: as §1
# VIOTR [20] = test: Post-emergence herbicidal action against VIOTR; assay type: in vivo, Viola tricolor; details: 20 g/ha
# Method in brief: as §1
# DIGSA [21] = test: Post-emergence herbicidal action against DIGSA; assay type: in vivo, Digitaria sanguinalis; details: 20 g/ha
# Method in brief: as §1
# VERPE [22] = test: Post-emergence herbicidal action against VERPE; assay type: in vivo, Veronica persica; details: 20 g/ha
# Method in brief: as §1
# [23] = Tripleurospermum inodorum, 504 h, dosage 20 g/ha
# [24] = Ipomoea purpurea, 504 h, dosage 20 g/ha
# [25] = 80 g/ha, scored visually after 3 weeks vs untreated controls (100% = plants have died, 0% = like control plants)
compound,measurement,setting,value
CCn1nnnc1NC(=O)c1ccc(C(F)(F)F)c(C(=O)NC(C)C)c1C [Example 2-33],pest or weed control at 5 g/ha,ALOMY [1]; dosage 5 g/ha,90%
same,pest or weed control at 20 g/ha,ALOMY [1]; dosage 20 g/ha,100%
same,pest or weed control at 5 g/ha,"ECHCG [2]; Echinochloa crus-galli, 504 h, dosage 5 g/ha",90%
same,pest or weed control at 20 g/ha,"ECHCG [2]; Echinochloa crus-galli, 504 h, dosage 20 g/ha",100%
same,pest or weed control at 20 g/ha,"AMARE [3]; Amaranthus retroflexus, 504 h, 20 g/ha, scored visually after 3 weeks vs untreated controls, 100% = plants have died, 0% = like control plants",100%
same,pest or weed control at 80 g/ha,"AMARE [3]; Amaranthus retroflexus, 504 h, 80 g/ha, scored visually after 3 weeks vs untreated controls, 100% = plants have died, 0% = like control plants",100%
same,pest or weed control at 80 g/ha,"LOLRI; Lolium rigidum, 504 h",80%
same,pest or weed control at 20 g/ha,MATIN [4]; [23],100%
same,pest or weed control at 80 g/ha,"MATIN [4]; Tripleurospermum inodorum, 504 h, dosage 80 g/ha",100%
same,pest or weed control at 20 g/ha,PHBPU [5]; [24],90%
same,pest or weed control at 80 g/ha,"ALOMY [6]; Alopecurus myosuroides, 504 h, 80 g/ha, scored visually after 3 weeks vs untreated controls (100% = plants have died, 0% = like control plants)",100%
same,pest or weed control at 20 g/ha,"ALOMY [6]; Alopecurus myosuroides, 504 h, 20 g/ha, scored visually after 3 weeks, 100% = plants have died, 0% = like control plants",90%
same,pest or weed control at 20 g/ha,"DIGSA [7]; Digitaria sanguinalis, 504 h, dosage 20 g/ha",100%
same,pest or weed control at 80 g/ha,"DIGSA [7]; Digitaria sanguinalis, 504 h, dosage 80 g/ha",100%
same,pest or weed control at 20 g/ha,"AVEFA [8]; Avena fatua, 504 h",100%
same,pest or weed control at 80 g/ha,"ECHCG [9]; Echinochloa crus-galli, 504 h",100%
same,pest or weed control at 5 g/ha,"MATIN [10]; Tripleurospermum inodorum, 504 h, dosage 5 g/ha",90%
same,pest or weed control at 20 g/ha,MATIN [10]; [23],90%
same,pest or weed control at 80 g/ha,"AVEFA [11]; Avena fatua, 504 h, 80 g/ha",90%
same,pest or weed control at 20 g/ha,"AVEFA [11]; Avena fatua, 504 h, 20 g/ha, scored visually after 3 weeks, 100% = plants have died, 0% = like control plants",80%
same,pest or weed control at 80 g/ha,"ABUTH [12]; Abutilon theophrasti, 504 h, 80 g/ha, scored visually after 3 weeks vs untreated controls (100% = plants have died, 0% = like control plants)",100%
same,pest or weed control at 20 g/ha,"ABUTH [12]; Abutilon theophrasti, 504 h, dosage 20 g/ha, scored visually after 3 weeks vs untreated controls, 100% = plants have died, 0% = like control plants, read-out: Pre-emergence action against ABUTH (herbicidal activity in percent)",100%
same,pest or weed control at 20 g/ha,"AMARE [13]; Amaranthus retroflexus, 504 h",100%
same,pest or weed control at 20 g/ha,"VIOTR [14]; Viola tricolor, 504 h, dosage 20 g/ha",100%
same,pest or weed control at 80 g/ha,"VIOTR [14]; Viola tricolor, 504 h, dosage 80 g/ha",100%
same,pest or weed control at 5 g/ha,SETVI [15]; dosage 5 g/ha,80%
same,pest or weed control at 20 g/ha,SETVI [15]; dosage 20 g/ha,100%
same,pest or weed control at 20 g/ha,"VERPE [16]; Veronica persica, 504 h, dosage 20 g/ha",80%
same,pest or weed control at 80 g/ha,"VERPE [16]; Veronica persica, 504 h, dosage 80 g/ha",90%
same,pest or weed control at 20 g/ha,"SETVI [17]; Setaria viridis, 504 h, dosage 20 g/ha",80%
same,pest or weed control at 80 g/ha,"SETVI [17]; Setaria viridis, 504 h, dosage 80 g/ha",100%
same,pest or weed control at 20 g/ha,PHBPU [18]; [24],80%
same,pest or weed control at 80 g/ha,"PHBPU [18]; Ipomoea purpurea, 504 h, dosage 80 g/ha",80%
same,pest or weed control at 5 g/ha,"ABUTH [19]; Abutilon theophrasti, 504 h, dosage 5 g/ha",90%
same,pest or weed control at 20 g/ha,"ABUTH [19]; Abutilon theophrasti, 504 h, dosage 20 g/ha",90%
CCn1nnnc1NC(=O)c1ccc(C(F)(F)F)c(C(=O)NC(C)C2CC2)c1Cl (stereo not shown) [Example 2-135],Post-emergence action against ECHCG in %,ECHCG [2]; dosage 5 g/ha,80%
same,Post-emergence action against ECHCG in %,ECHCG [2]; dosage 20 g/ha,90%
same,Pre-emergence action against AMARE in %,"AMARE [3]; 20 g/ha, scored visually after 3 weeks vs untreated controls, 100% = plants have died, 0% = like control plants",100%
same,Pre-emergence action against AMARE in %,AMARE [3]; [25],100%
same,Pre-emergence action against LOLRI in %,LOLRI,80%
same,Pre-emergence action against MATIN in %,MATIN [4]; dosage 20 g/ha,90%
same,Pre-emergence action against MATIN in %,MATIN [4]; dosage 80 g/ha,100%
same,Post-emergence action against PHBPU in %,PHBPU [5]; dosage 5 g/ha,80%
same,Post-emergence action against PHBPU in %,PHBPU [5]; dosage 20 g/ha,80%
same,Pre-emergence action against ALOMY (herbicidal activity),ALOMY [6]; [25],90%
same,Pre-emergence action against DIGSA in %,DIGSA [7]; dosage 20 g/ha,100%
same,Pre-emergence action against DIGSA in %,DIGSA [7]; dosage 80 g/ha,100%
same,Post-emergence action at 20 g/ha against AVEFA in %,AVEFA [8],80%
same,Post-emergence action against VIOTR in %,VIOTR [20],90%
same,Pre-emergence action against ECHCG in %,ECHCG [9],100%
same,Post-emergence action against MATIN in %,MATIN [10]; dosage 5 g/ha,90%
same,Post-emergence action against MATIN in %,MATIN [10]; dosage 20 g/ha,90%
same,Pre-emergence action against AVEFA in %,AVEFA [11]; 80 g/ha,90%
same,Pre-emergence action against ABUTH (herbicidal activity),ABUTH [12]; [25],100%
same,Pre-emergence action against ABUTH (herbicidal activity in percent),"ABUTH [12]; dosage 20 g/ha, scored visually after 3 weeks vs untreated controls, 100% = plants have died, 0% = like control plants",100%
same,Post-emergence action at 20 g/ha against AMARE in %,AMARE [13],90%
same,Pre-emergence action against VIOTR in %,VIOTR [14]; dosage 20 g/ha,100%
same,Pre-emergence action against VIOTR in %,VIOTR [14]; dosage 80 g/ha,100%
same,Post-emergence action against DIGSA,DIGSA [21],80%
same,Pre-emergence action against VERPE in %,VERPE [16]; dosage 80 g/ha,100%
same,Post-emergence action against VERPE in %,VERPE [22],90%
same,Pre-emergence action against SETVI in %,SETVI [17]; dosage 80 g/ha,100%
same,Pre-emergence action against PHBPU in %,PHBPU [18]; dosage 80 g/ha,80%
same,Post-emergence action against ABUTH in %,ABUTH [19]; dosage 20 g/ha,80%
